Assay results from patent US8222218B2, “Cyclopropanated carbohydrates” (Seton Hall University, priority 2008, dated 2012).
Like-named read-outs stand apart in the source and are kept apart here.

Columns and labels:
Format in all cases: in vivo
MES-induced seizures = assay: Maximal Electroshock Seizure (MES) test, mice; details: for responders at 30 mg/kg / responders at 100 mg/kg / responders at 300 mg/kg: Mus musculus, ip
Text: The MES test is a model for generalized tonic-clonic seizures. The seizures are highly reproducible and electrophysiologically consistent with human seizures. The test provides information about a compound's ability to prevent the spread of seizure when all neuronal circuits of the brain are maximally active. 60 Hz of alternating current (50 mA in mice, 150 mA in rats) is applied for 2 seconds via corneal electrodes that have been treated with an electrolyte solution containing an anesthetic (0.5% tetracaine HCl). Mice are tested at a variety of intervals after an i.p. injection of […] solution of the test compound (commonly in a 0.5% solution of methylcellulose) at 30, 100, and 300 mg/kg doses. Rats are examined after a 30 mg/kg (per os, p.o.) dose that is applied in a volume of 0.04 mL/g. An animal is considered “protected” from MES-induced seizures upon removal of the hind limb extensor component of the seizure.
(§1) Male and female albino CF1 mice (18-25 g, Charles River, Portage, Mich.) and male albino Sprague-Dawley rats (275-300 g, kindling test; 100-150 g all other tests; Charles River, Raleigh, N.C.) were used as experimental animals.

[1] = tested on: metrazole-induced clonic seizures; assay: Subcutaneous Metrazole Seizure Threshold Test (scMET), mice; details: for responders at 30 mg/kg / responders at 100 mg/kg / responders at 300 mg/kg: Mus musculus, sc
Description: The subcutaneous injection of metrazole, which is a convulsant, produces clonic seizures in laboratory animals. The scMET test is designed to identify compounds that raise the seizure threshold of an animal. Mice are pretreated with test compound at 30, 100, and 300 mg/kg doses in a similar manner to the MES test. Rats are treated with a 50 mg/kg dose (p.o.). At the previously determined TPE of the test compound, the dose of metrazole that will induce convulsions in 97% of animals (CD97: 85 mg/kg mice) is injected into the loose fold of the skin in the midline of the neck. The animals are placed in isolation cages to minimize stress and observed for the next 30 minutes for the presence or absence of seizures. An episode of clonic spasms (approximately 3-5 seconds) of the fore and/or hindlimbs, jaws or vibrissae is taken as the endpoint.
as §1

[2] = Acute toxicity, minimal motor impairment (rotorod), mice; details: mice, rotorod; for TOX 30 0.5 h (animals toxic/tested) / TOX 30 4 h (animals toxic/tested): 30 mg/kg; for TOX 100 0.5 h (animals toxic/tested) / TOX 100 4 h (animals toxic/tested): 100 mg/kg; for TOX 300 0.5 h (animals toxic/tested) / TOX 300 4 h (animals toxic/tested): 300 mg/kg
Description: Toxicity was measured using the minimal motor impairment test described below.
Animals are monitored for overt signs of impaired neurological or muscular function to assess a compound's toxicity. In mice, the rotorod procedure is used to disclose minimal muscular or neurological impairment. When a mouse is placed on a rotating rod (6 rpm), the animal can maintain its equilibrium for long periods of time. The animal is considered toxic if it falls off the rotating rod three times during a 1 minute period. In rats, minimal motor deficit is indicated by ataxia, which is manifested by an abnormal, uncoordinated gait.

[3] = mice, i.p., 30 mg/kg, 0.5 h, read-out: MES 30 0.5 h (animals protected/tested)
[4] = mice, i.p., 30 mg/kg, 4 h, read-out: MES 30 4 h (animals protected/tested)
[5] = mice, i.p., 100 mg/kg, 0.5 h, read-out: MES 100 0.5 h (animals protected/tested)
[6] = mice, i.p., 100 mg/kg, 4 h, read-out: MES 100 4 h (animals protected/tested)
[7] = mice, i.p., 300 mg/kg, 0.5 h, read-out: MES 300 0.5 h (animals protected/tested)
[8] = mice, i.p., 300 mg/kg, 4 h, read-out: MES 300 4 h (animals protected/tested)
[9] = mice, 30 mg/kg, 0.4 h, read-out: scMET 30 0.4 h (animals protected/tested)
[10] = mice, 30 mg/kg, 0.5 h, read-out: scMET 30 0.5 h (animals protected/tested)
[11] = mice, 100 mg/kg, 0.4 h, read-out: scMET 100 0.4 h (animals protected/tested)
[12] = mice, 100 mg/kg, 0.5 h, read-out: scMET 100 0.5 h (animals protected/tested)
[13] = mice, 300 mg/kg, 0.4 h, read-out: scMET 300 0.4 h (animals protected/tested)
[14] = mice, 300 mg/kg, 0.5 h, read-out: scMET 300 0.5 h (animals protected/tested)

SMILES	responders at 30 mg/kg (MES-induced seizures; [3])	responders at 30 mg/kg (MES-induced seizures; [4])	responders at 100 mg/kg (MES-induced seizures; [5])	responders at 100 mg/kg (MES-induced seizures; [6])	responders at 300 mg/kg (MES-induced seizures; [7])	responders at 300 mg/kg (MES-induced seizures; [8])	responders at 30 mg/kg [1, 9]	responders at 30 mg/kg [1, 10]	responders at 100 mg/kg [1, 11]	responders at 100 mg/kg [1, 12]	responders at 300 mg/kg [1, 13]	responders at 300 mg/kg [1, 14]	TOX 30 0.5 h (animals toxic/tested) [2]	TOX 30 4 h (animals toxic/tested) [2]	TOX 100 0.5 h (animals toxic/tested) [2]	TOX 100 4 h (animals toxic/tested) [2]	TOX 300 0.5 h (animals toxic/tested) [2]	TOX 300 4 h (animals toxic/tested) [2]	MES 30 0.5 h (animals protected/tested) (MES-induced seizures; mice, i.p., 30 mg/kg, 0.5 h)	MES 30 4 h (animals protected/tested) (MES-induced seizures; mice, i.p., 30 mg/kg, 4 h)	further results
CCOC(=O)C1[C@@H]2[C@@H](OS(=O)(=O)N(C)C)[C@@H]3O[C@H](c4ccc(OC)cc4)OC[C@H]3O[C@H]12 (stereo partly drawn) [Compound 17a, Ethyl (2R,4aR,5aS,6aS,7R,7aR)-7-[(dimethylsulfamoyl)oxy]-2-(4-methoxyphenyl)hexahydro-4H-cyclopropa[5,6]pyrano[3,2-d][1,3]dioxine-6-carboxylate]	0%	0%	0%	0%	0%	0%	0%	0%	0%	0%	0%	0%	0/4	0/2	0/8	0/4	0/4	0/2	–	–	–
COC(=O)C1[C@@H]2[C@@H](O)[C@@H]3OC(C)(C)OC[C@H]3O[C@H]12 (stereo partly drawn) [Compound 10, Methyl (4aR,5aS,6aR,7R,7aS)-7-hydroxy-2,2-dimethylhexahydro-4H-cyclopropa[5,6]pyrano[3,2-d][1,3]dioxine-6-carboxylate]	0%	0%	0%	0%	0%	0%	0%	0%	0%	0%	0%	0%	0/4	0/2	0/8	0/4	0/4	0/2	–	–	–
CCOC(=O)[C@@H]1[C@H]2O[C@@H]3CO[Si](C(C)(C)C)(C(C)(C)C)O[C@H]3/C(=N/O)[C@H]21 [Compound 4]	–	–	–	–	–	–	–	–	–	–	–	–	0/4	0/2	0/8	1/4	0/4	0/2	–	–	responders at 30 mg/kg (MES-induced seizures; 0.5 h, read-out: MES 30 0.5 h (animals protected/tested)): 0%; responders at 100 mg/kg (MES-induced seizures; 0.5 h, read-out: MES 100 0.5 h (animals protected/tested)): 0%; responders at 300 mg/kg (MES-induced seizures; 0.5 h, read-out: MES 300 0.5 h (animals protected/tested)): 0%; responders at 30 mg/kg (MES-induced seizures; 4 h, read-out: MES 30 4 h (animals protected/tested)): 0%; responders at 100 mg/kg (MES-induced seizures; 4 h, read-out: MES 100 4 h (animals protected/tested)): 0%; responders at 300 mg/kg (MES-induced seizures; 4 h, read-out: MES 300 4 h (animals protected/tested)): 0%; responders at 30 mg/kg ([1]; 0.4 h, read-out: scMET 30 0.4 h (animals protected/tested)): 0%; responders at 100 mg/kg ([1]; 0.4 h, read-out: scMET 100 0.4 h (animals protected/tested)): 0%; responders at 300 mg/kg ([1]; 0.4 h, read-out: scMET 300 0.4 h (animals protected/tested)): 0%; responders at 30 mg/kg ([1]; 0.5 h, read-out: scMET 30 0.5 h (animals protected/tested)): 0%; responders at 100 mg/kg ([1]; 0.5 h, read-out: scMET 100 0.5 h (animals protected/tested)): 0%; responders at 300 mg/kg ([1]; 0.5 h, read-out: scMET 300 0.5 h (animals protected/tested)): 0%
CCOC(=O)C1[C@@H]2[C@@H](OS(=O)(=O)N(C)C)[C@@H]3OC(C)(C)OC[C@H]3O[C@H]12 (stereo partly drawn) [Compound 8a, Ethyl (4aR,5aS,6aS,7R,7aR)-7-[(dimethlylsulfamoyl)oxy]-2,2-dimethylhexahydro-4H-cyclopropa[5,6]pyrano[3,2-d][1,3]dioxine-6-carboxylate]	–	–	–	–	–	–	–	–	–	–	–	–	0/4	0/2	0/8	0/4	1/4	0/2	0/1	0/1	MES 100 0.5 h (animals protected/tested) (MES-induced seizures; mice, i.p., 100 mg/kg, 0.5 h): 0/3; MES 100 4 h (animals protected/tested) (MES-induced seizures; mice, i.p., 100 mg/kg, 4 h): 0/3; MES 300 0.5 h (animals protected/tested) (MES-induced seizures; mice, i.p., 300 mg/kg, 0.5 h): 0/1; MES 300 4 h (animals protected/tested) (MES-induced seizures; mice, i.p., 300 mg/kg, 4 h): 0/1; scMET 30 0.4 h (animals protected/tested) ([1]; mice, 30 mg/kg, 0.4 h): 0/1; scMET 30 0.5 h (animals protected/tested) ([1]; mice, 30 mg/kg, 0.5 h): 0/1; scMET 100 0.4 h (animals protected/tested) ([1]; mice, 100 mg/kg, 0.4 h): 0/1; scMET 100 0.5 h (animals protected/tested) ([1]; mice, 100 mg/kg, 0.5 h): 0/1; scMET 300 0.4 h (animals protected/tested) ([1]; mice, 300 mg/kg, 0.4 h): 0/1; scMET 300 0.5 h (animals protected/tested) ([1]; mice, 300 mg/kg, 0.5 h): 0/1
CCOC(=O)C1[C@@H]2[C@@H](O)[C@@H]3O[C@H](c4ccccc4)OC[C@H]3O[C@H]12 (stereo partly drawn) [Compound 20a, Ethyl (2R,4aR,5aS,6aR,7R,7aS)-7-hydroxy-2-phenylhexahydro-4H-cyclopropa[5,6]pyrano[3,2-d][1,3]dioxine-6-carboxylate]	0%	0%	0%	0%	0%	0%	0%	0%	0%	0%	0%	0%	0/4	0/2	0/8	0/4	0/4	0/2	–	–	–
COC(=O)[C@H]1C2O[C@@H]3CO[Si](C(C)(C)C)(C(C)(C)C)O[C@@H]3[C@H](O)[C@@H]21 (stereo partly drawn) [Compound 14b, (1R,1as,2R,2aR,6aR)-4,4-di-tert-butyl-2-hydroxy-hexahydro-3,5,7-trioxa-4-silacyclopropa[b]naphthalene-1-carboxylic acid (S)-methyl ester]	–	–	–	–	–	–	–	–	–	–	–	–	0/4	0/2	2/8	0/4	4/4	0/2	0/1	0/1	MES 100 0.5 h (animals protected/tested) (MES-induced seizures; mice, i.p., 100 mg/kg, 0.5 h): 0/3; MES 100 4 h (animals protected/tested) (MES-induced seizures; mice, i.p., 100 mg/kg, 4 h): 0/3; MES 300 0.5 h (animals protected/tested) (MES-induced seizures; mice, i.p., 300 mg/kg, 0.5 h): 0/1; MES 300 4 h (animals protected/tested) (MES-induced seizures; mice, i.p., 300 mg/kg, 4 h): 0/1; scMET 30 0.4 h (animals protected/tested) ([1]; mice, 30 mg/kg, 0.4 h): 0/1; scMET 30 0.5 h (animals protected/tested) ([1]; mice, 30 mg/kg, 0.5 h): 0/1; scMET 100 0.4 h (animals protected/tested) ([1]; mice, 100 mg/kg, 0.4 h): 0/1; scMET 100 0.5 h (animals protected/tested) ([1]; mice, 100 mg/kg, 0.5 h): 0/1; scMET 300 0.4 h (animals protected/tested) ([1]; mice, 300 mg/kg, 0.4 h): 0/1; scMET 300 0.5 h (animals protected/tested) ([1]; mice, 300 mg/kg, 0.5 h): 0/1
